Reference: patent EP4603105A1, “PHARMACEUTICAL COMPOSITION CONTAINING CYCLIC COMPOUND HAVING SELECTIVE KRAS INHIBITORY EFFECT AGAINST HRAS AND NRAS” (CHUGAI SEIYAKU KABUSHIKI KAISHA, priority 2022, dated 2024)
Where a SMILES comes first, the peptide text is derived from it. Bridges are numbered along the chain shown (N, C = ends). [ ]: non-standard residue; d: D form. The star is where a group is joined. hPhe(3-Cl-4-CF3) = N[C@@H](CCc1ccc(C(F)(F)F)c(Cl)c1)C(=O)O; NPrPhe(4-CF3) = CCCN[C@@H](Cc1ccc(C(F)(F)F)cc1)C(=O)O; 3Oxa8azabicyclo(3.2.1)octane = C1CC2COCC1N2*; NMeGly(cPent) = CN[C@H](C(=O)O)C1CCCC1; Pro(4,4-Me2) = CC1(C)CN[C@H](C(=O)O)C1; NMeD = CN[C@@H](CC(=O)O)C(=O)O; NMeL = CN[C@@H](CC(C)C)C(=O)O; Morpholide = C1CN(*)CCO1; NMeA = CN[C@@H](C)C(=O)O; Ac5c = NC1(C(=O)O)CCCC1; Aze = O=C(O)[C@@H]1CCN1; Sar = CNCC(=O)O

Assays:
[1] = molecular target: GDP-bound NRAS wild-type protein (Homo sapiens, UniProt P01111); assay: Binding to NRAS by surface plasmon resonance (SPR), KD and KD ratio to KRAS
Procedure, shortened: (§1)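 SPR, 30°C: Avi-biotin RAS·GDP captured via Biotin CAPture (~100–300 RU); running buffer HBS pH 7.4, 1 mM DTT, 10 mM MgCl2, 0.01% Tween 20, 10 µM GDP, 4% DMSO. Single-cycle kinetics, 100 µL/min, 75 s injections; 1:1 model → KD.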

[2] = tested on: human lung cancer strain NCI-H441; assay type: cell-based
Procedure, shortened: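 Proliferation was scored by […] measured after the reagent was added to cultures kept at 37°C in 5% carbon dioxide.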

[3] = molecular target: GDP-bound KRAS wild-type protein (Homo sapiens, UniProt P01116); assay: Binding to KRAS by surface plasmon resonance (SPR), dissociation constant KD
Procedure, shortened: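 Single-cycle kinetics on GDP-loaded biotin-Avi RAS captured to ~100–300 RU; 75 s ascending injections, 100 µL/min, 30°C. HBS pH 7.4 + 10 mM MgCl2/10 µM GDP/4% DMSO. 1:1 fit, KD.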

HRAS wild-type protein = HRAS wild-type protein (Homo sapiens, UniProt P01112); assay: Binding to HRAS by surface plasmon resonance (SPR), KD and KD ratio to KRAS
Procedure, shortened: as §1

[4] = ratio of KD for GDP-bound NRAS wild-type protein to KD for KRAS
[5] = ratio of KD for HRAS wild-type protein to KD for KRAS
[6] = ratio of the KD value with respect to GDP-bound NRAS wild-type protein to the KD value with respect to KRAS
[7] = Single Cycle Kinetics, 1:1 binding model
[8] = ratio of the KD value with respect to HRAS wild-type protein to the KD value with respect to KRAS
[9] = ratio of KD value for GDP-bound NRAS wild-type protein to KD value for KRAS (SPR)
[10] = ratio of KD value for HRAS wild-type protein to KD value for KRAS (SPR)

Sequence of GDP-bound KRAS wild-type protein (P01116 1-188 isoform P01116-2): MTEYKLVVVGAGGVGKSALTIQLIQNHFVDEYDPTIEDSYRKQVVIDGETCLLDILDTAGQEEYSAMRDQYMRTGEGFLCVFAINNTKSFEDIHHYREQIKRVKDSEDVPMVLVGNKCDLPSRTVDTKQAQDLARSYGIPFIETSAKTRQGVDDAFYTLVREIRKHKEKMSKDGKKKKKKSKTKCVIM
Sequence of GDP-bound NRAS wild-type protein (P01111 whole entry): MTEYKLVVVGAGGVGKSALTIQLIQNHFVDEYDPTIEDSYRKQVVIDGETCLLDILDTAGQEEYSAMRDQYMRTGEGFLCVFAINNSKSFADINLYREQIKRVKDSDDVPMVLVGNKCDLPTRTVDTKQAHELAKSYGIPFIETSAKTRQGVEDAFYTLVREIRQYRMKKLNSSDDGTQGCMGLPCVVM
Sequence of HRAS wild-type protein (P01112 whole entry): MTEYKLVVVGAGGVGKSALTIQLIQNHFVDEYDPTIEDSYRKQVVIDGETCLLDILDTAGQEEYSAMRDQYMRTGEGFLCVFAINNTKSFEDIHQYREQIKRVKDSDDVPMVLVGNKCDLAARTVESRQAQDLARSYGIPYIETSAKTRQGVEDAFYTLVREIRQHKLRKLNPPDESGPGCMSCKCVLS

Row | IC50 [2] [nM] | Kd ([3]; 1:1 binding model) [nM] | Kd ([3]; Single Cycle Kinetics) [nM] | Kd [3, 7] [nM] | SMILES | NRAS /KRAS [1, 4] | HRAS /KRAS (HRAS wild-type protein; [5]) | NRAS /KRAS [1, 6] | HRAS /KRAS (HRAS wild-type protein; [8]) | NRAS /KRAS [1, 9] | HRAS /KRAS (HRAS wild-type protein; [10])
1 | 10.4 | 0.082 | – | – | CCO[C@@H]1C[C@H]2C(=O)NC3(CC(C)(C)C3)C(=O)N(C)[C@@H](C3CCCC3)C(=O)N(C)[C@H](C(=O)N(C)C)CC(=O)N(C)[C@@H]([C@H](C)OC)C(=O)N[C@@H]([C@@H](C)CC)C(=O)N(C)CC(=O)N(C)[C@H]3C/C=C\CCN(C3=O)[C@@H](Cc3ccc(C)cc3)C(=O)N(C)CC(=O)N[C@@H](CCc3cc(F)c(C(F)(F)F)c(F)c3)C(=O)N2C1 [PP3187] | A (a compound having 10 or more and less than 20 is denoted as A) | A (a compound having 10 or more and less than 20 is denoted as A) | – | – | – | –
2 | 36 | – | – | 0.083 | CC[C@H](C)[C@@H]1NC(=O)[C@H](CC(C)C)N(C)C(=O)C[C@@H](C(=O)N(C)C)N(C)C(=O)[C@H](C2CCCC2)N(C)C(=O)C2(CCC2)NC(=O)[C@@H]2C[C@H](C)CN2C(=O)[C@H](CCc2ccc(C(F)(F)F)c(OC)c2)NC(=O)CN(C)C(=O)[C@H](Cc2ccc(C)cc2)N2CC/C=C\C[C@@H](C2=O)N(C)C(=O)CN(C)C1=O [PP1865] | – | – | – | – | A (a compound having 10 or more and less than 20 is denoted as A) | B (a compound having 3 or more and less than 10 is denoted as B)
3 | 3.3 | – | – | 0.12 | CCCOC[C@H]1C(=O)N[C@@H]([C@@H](C)CC)C(=O)N(C2CC2)CC(=O)N(C)[C@H]2C/C=C\CCN(C2=O)[C@@H](Cc2ccc(C(F)(F)F)cc2)C(=O)N(C)CC(=O)N[C@@H](CCc2ccc(C(F)(F)F)c(OC)c2)C(=O)N2C[C@H](OCC)C[C@H]2C(=O)N(C)C2(CCC2)C(=O)N(C)[C@@H](C2CCCC2)C(=O)N(C)[C@H](C(=O)N(C)C)CC(=O)N1C [PP2318] | – | – | A (a compound having 10 or more and less than 20 is denoted as A) | A (a compound having 10 or more and less than 20 is denoted as A) | – | –
4 | 50.1 | 0.6 | – | – | CCO[C@@H]1C[C@H]2C(=O)NC3(CC(C)(C)C3)C(=O)N(C)[C@@H](C3CCCC3)C(=O)N(C)[C@H](C(=O)N(C)CC)CC(=O)N(C)[C@@H]([C@H](C)OC)C(=O)N[C@@H]([C@@H](C)CC)C(=O)N(C3CC3)CC(=O)N(C)[C@H]3C/C=C\CCN(C3=O)[C@@H](Cc3ccc(C)cc3)C(=O)N(C)CC(=O)N[C@@H](CCc3ccc(C(F)(F)F)c(Cl)c3)C(=O)N2C1 [PP3159] | A (a compound having 10 or more and less than 20 is denoted as A) | A (a compound having 10 or more and less than 20 is denoted as A) | – | – | – | –
5 | 3.3 | 0.55 | – | – | CCC[C@H]1C(=O)N[C@@H]([C@@H](C)CC)C(=O)N(C)CC(=O)N(C)[C@H]2C/C=C\CCN(C2=O)[C@@H](Cc2ccc(C(F)(F)F)cc2)C(=O)N(C)CC(=O)N[C@@H](CCc2ccc3sc(F)c(C)c3c2)C(=O)N2C[C@H](OCC)C[C@H]2C(=O)NC2(CC(C)(C)C2)C(=O)N(C)[C@@H](C2CCCC2)C(=O)N(C)[C@H](C(=O)N(C)C)CC(=O)N1C [PP2948] | A (a compound having 10 or more and less than 20 is denoted as A) | A (a compound having 10 or more and less than 20 is denoted as A) | – | – | – | –
6 | 65.5 | 1.9 | – | – | CCC(CC)[C@H]1C(=O)N(C)[C@H](C(=O)N(C)C)CC(=O)N(C)[C@@H](COC)C(=O)N[C@@H]([C@@H](C)CC)C(=O)N(C)CC(=O)N(C)[C@H]2C/C=C\CCN(C2=O)[C@@H](Cc2ccc(C)cc2)C(=O)N(C)CC(=O)N[C@@H](CCc2ccc(C(F)(F)F)c(Cl)c2)C(=O)N2CCCC[C@H]2C(=O)NC2(CC(C)(C)C2)C(=O)N1C [PP2931] | A (a compound having 10 or more and less than 20 is denoted as A) | A (a compound having 10 or more and less than 20 is denoted as A) | – | – | – | –

Continued, molecule first:

Row | SMILES | IC50 [2] [nM] | Kd ([3]; 1:1 binding model) [nM] | Kd ([3]; Single Cycle Kinetics) [nM] | Kd [3, 7] [nM] | NRAS /KRAS [1, 4] | HRAS /KRAS (HRAS wild-type protein; [5]) | NRAS /KRAS [1, 6] | HRAS /KRAS (HRAS wild-type protein; [8]) | NRAS /KRAS [1, 9] | HRAS /KRAS (HRAS wild-type protein; [10])
7 | CC[C@H](C)[C@@H]1NC(=O)[C@H](CC(C)C)N(C)C(=O)C[C@@H](C(=O)N(C)C)N(C)C(=O)[C@H](C2CCCC2)N(C)C(=O)C2(CCCC2)NC(=O)[C@@H]2CCCN2C(=O)[C@H](CCc2ccc(C(F)(F)F)c(Cl)c2)NC(=O)CN(C)C(=O)[C@H](Cc2ccc(F)cc2)N2CCCCC[C@@H](C2=O)N(C)C(=O)CN(C)C1=O [PP0971] | 54 | – | 0.34 | – | B (a compound having 3 or more and less than 10 is denoted as B) | B (a compound having 3 or more and less than 10 is denoted as B) | – | – | – | –
8 | CCCN1C(=O)[C@@H]2CCN2C(=O)[C@H](C)N(C)C(=O)[C@H]([C@@H](C)CC)NC(=O)[C@H](CC(C)C)N(C)C(=O)C[C@@H](C(=O)N2C3CCC2COC3)N(C)C(=O)[C@H](C2CCCC2)N(C)C(=O)C2(CCCC2)NC(=O)[C@@H]2CCCN2C(=O)[C@H](CCc2ccc(C(F)(F)F)c(Cl)c2)NC(=O)CN(C)C(=O)[C@@H]1Cc1ccc(C(F)(F)F)cc1 [PP0182] ([NMeL]I[NMeA][Aze][NPrPhe(4-CF3)][Sar][hPhe(3-Cl-4-CF3)]P[Ac5c][NMeGly(cPent)][NMeD]-{3Oxa8azabicyclo(3.2.1)octane}; lactam N-11) | 6.2 | 0.88 | – | – | C (A compound having a KD ratio of 0.1 or more and less than 3 is denoted as C) | B (a compound having 3 or more and less than 10 is denoted as B) | – | – | – | –
9 | CCO[C@@H]1C[C@H]2C(=O)NC3(CCC3)C(=O)N(C)[C@@H](C3CCCC3)C(=O)N(C)[C@H](C(=O)N(C)C)CC(=O)N(C)[C@@H](CC(C)C)C(=O)N[C@@H]([C@@H](C)CC)C(=O)N(C)CC(=O)N(C)[C@H]3CCCCCN(C3=O)[C@@H](Cc3ccc(C(F)(F)F)cc3)C(=O)N(C)CC(=O)N[C@@H](CCc3cc(F)c(C(F)(F)F)c(F)c3)C(=O)N2C1 [PP0469] | 36.1 | – | – | 0.76 | – | – | B (a compound having 3 or more and less than 10 is denoted as B) | B (a compound having 3 or more and less than 10 is denoted as B) | – | –
10 | CCC[C@H]1C(=O)N[C@@H]([C@@H](C)CC)C(=O)N(C)CC(=O)N(C)[C@H]2C/C=C\CCN(C2=O)[C@@H](Cc2ccc(C)cc2)C(=O)N(C)CC(=O)N[C@@H](CCc2cc(F)c(C(F)(F)F)c(F)c2)C(=O)N2C[C@@H](C)C[C@H]2C(=O)NC2(CCC2)C(=O)N(C)[C@@H](C2CCCC2)C(=O)N(C)[C@H](C(=O)N(C)CC)CC(=O)N1C [PP1860] | 10.3 | – | – | 0.11 | – | – | – | – | A (a compound having 10 or more and less than 20 is denoted as A) | A (a compound having 10 or more and less than 20 is denoted as A)
11 | CCCN1C(=O)CN(C)C(=O)[C@@H]2CCN2C(=O)[C@H]([C@@H](C)CC)NC(=O)[C@H](CC(C)C)N(C)C(=O)C[C@@H](C(=O)N2CCOCC2)N(C)C(=O)[C@H](C2CCCC2)N(C)C(=O)C2(CCCC2)NC(=O)[C@@H]2CC(C)(C)CN2C(=O)[C@H](CCc2ccc(C(F)(F)F)c(Cl)c2)NC(=O)CN(C)C(=O)[C@@H]1Cc1ccc(C(F)(F)F)cc1 [PP0452] ([NMeL]I[Aze][Sar][NPrPhe(4-CF3)][Sar][hPhe(3-Cl-4-CF3)][Pro(4,4-Me2)][Ac5c][NMeGly(cPent)][NMeD]-Morpholide; lactam N-11) | 34.1 | – | – | 0.73 | – | – | B (a compound having 3 or more and less than 10 is denoted as B) | B (a compound having 3 or more and less than 10 is denoted as B) | – | –
12 | CCO[C@@H]1C[C@H]2C(=O)NC3(CCCC3)C(=O)N(C)[C@@H](C3CCCC3)C(=O)N(C)[C@H](C(=O)N3CCOCC3)CC(=O)N(C)[C@@H](CC(C)C)C(=O)N[C@@H]([C@@H](C)CC)C(=O)N(C)CC(=O)N(C)[C@H]3CCCCCN(C3=O)[C@@H](Cc3ccc(F)cc3)C(=O)N(C)CC(=O)N[C@@H](CCc3ccc(C(F)(F)F)c(Cl)c3)C(=O)N2C1 [PP0965] | 48.8 | – | 0.57 | – | B (a compound having 3 or more and less than 10 is denoted as B) | B (a compound having 3 or more and less than 10 is denoted as B) | – | – | – | –
13 | CCO[C@@H]1C[C@H]2C(=O)NC3(CCC3)C(=O)N(C)[C@@H](C3CCCC3)C(=O)N(CCC3CCC3)[C@H](C(=O)N3CCOCC3)CC(=O)N(C)[C@@H](CC(C)C)C(=O)N[C@@H]([C@@H](C)CC)C(=O)N(C)CC(=O)N(C)[C@H]3CCCCCN(C3=O)[C@@H](Cc3ccc(C(F)(F)F)cc3)C(=O)N(C)CC(=O)N[C@@H](CCc3cc(F)c(C(F)(F)F)c(F)c3)C(=O)N2C1 [PP0640] | > 600 | – | – | 20 | – | – | B (a compound having 3 or more and less than 10 is denoted as B) | B (a compound having 3 or more and less than 10 is denoted as B) | – | –
14 | CCCC[C@H]1C(=O)N[C@@H]([C@@H](C)CC)C(=O)N(C)CC(=O)N(C)[C@H]2C/C=C\CCN(C2=O)[C@@H](Cc2ccc(C(F)(F)F)cc2)C(=O)N(C)CC(=O)N[C@@H](CCc2cc(F)c(C(F)(F)F)c(F)c2)C(=O)N2C[C@H](OCC)C[C@H]2C(=O)NC2(CC(F)(F)C2)C(=O)N(C)[C@@H](C2CCCC2)C(=O)N(C)[C@H](C(=O)N(C)C)CC(=O)N1C [PP1740] | 3.6 | – | – | 0.053 | – | – | – | – | A (a compound having 10 or more and less than 20 is denoted as A) | A (a compound having 10 or more and less than 20 is denoted as A)
